# According to US11667602B2, “Compounds and their use” (AstraZeneca AB, priority 2020, dated 2023):
# How the values were obtained:
# [1] = Human Plasma Protein Binding (Test B); assay type: in vitro ADME; conditions: fraction unbound (fu)
# In short: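 Human plasma protein binding run per the published Wernevik et al. (2020) integrated DMPK panel protocol. Values are fraction unbound (fu, % free); repeat runs averaged arithmetically.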
# [2] = Human Liver Microsomal Stability (Test C); assay type: in vitro ADME; conditions: human, liver microsomes
# In short: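 Human liver microsome incubation per the Wernevik et al. integrated DMPK panel protocol. Intrinsic clearance reported as CLint in μl/min/mg protein, averaged arithmetically over repeat runs.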
# [3] = Human Hepatocyte Stability (Test D); assay type: in vitro ADME; conditions: human, cryopreserved pooled human hepatocytes (LiverPool 10-Donor), geometric mean if run multiple times
# In short: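 Pooled 10-donor cryopreserved human hepatocytes (≥80% viable) in L-15 medium at 0.25×10^6 cells per 0.25 mL well. Compound added from 100 μM acetonitrile solution; incubated at 37 °C with shaking, acetonitrile-quenched, LC-MS analysed. Clint (μL/min/10^6 cells) from ln % parent vs time slope; geometric mean of repeat runs.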
# [4] = Rat Hepatocyte Stability (Test E); assay type: in vitro ADME; conditions: rat, hepatocytes, geometric mean if run multiple times
# In short: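 Run per the published AstraZeneca-type rat hepatocyte stability protocol (Wernevik et al. panel). Values are mean intrinsic clearance, Clint in μl/min/10^6 cells; geometric mean used for repeated runs.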
# Solubility (Test F) = assay type: physicochemical; conditions: arithmetic mean if run multiple times
# Procedure: The assay was conducted according to the Solubility Assay described in pages 164-167 of Wernevik, J. et al., “A Fully Integrated Assay Panel for Early Drug Metabolism and Pharmacokinetics Profiling”, Assay and Drug Development Technologies, 2020, 18(4), 157-179. Data are reported in Table 36 as solubility ([…]. Where the assay was run multiple times for the same compound, the arithmetic mean is reported.
Compound,Test B Human Plasma Protein Binding (% free) [1],microsomal CLint [2],hepatocyte CLint at 1 µM [3],hepatocyte CLint [4],solubility (Solubility (Test F))
"COc1cc(F)c(O[C@H]2CC[C@@](C)(C(=O)O)CC2)cc1C(=O)N[C@@H]1[C@H]2CC[C@H](C2)[C@@H]1C(=O)N[C@H](C)C(C)(C)C [Example 36, (1S,4s)-4-(5-(((1S,2R,3S,4R)-3-(((R)-3,3-Dimethylbutan-2-yl)carbamoyl)bicyclo[2.2.1]heptan-2-yl)carbamoyl)-2-fluoro-4-methoxyphenoxy)-1-methylcyclohexane-1-carboxylic acid]",6.9 % free,33 µL/min/mg,5.8 µL/min/1e6 cells,7.2 µL/min/1e6 cells,22 µM
"COc1cc(F)c(O[C@H]2CC[C@@](C)(C(=O)O)CC2)cc1C(=O)N[C@@H]1[C@H]2CC[C@H](C2)[C@@H]1C(=O)NCC(C)(C)C(F)(F)F [Example 38, (1S,4s)-4-(2-Fluoro-4-methoxy-5-(((1S,2R,3S,4R)-3-((3,3,3-trifluoro-2,2-dimethylpropyl)carbamoyl)bicyclo[2.2.1]heptan-2-yl)carbamoyl)phenoxy)-1-methylcyclohexane-1-carboxylic acid]",5.6 % free,13 µL/min/mg,4.2 µL/min/1e6 cells,9 µL/min/1e6 cells,38 µM
"CC1(CNC(=O)[C@H]2[C@@H]3CC[C@@H](C3)[C@H]2NC(=O)c2cc(O[C@H]3CC[C@@](C)(C(=O)O)CC3)c(F)cc2OC(F)F)CCC1 [Example 207, (1S,4s)-4-(4-(Difluoromethoxy)-2-fluoro-5-(((1S,2R,3S,4R)-3-(((1-methylcyclobutyl)methyl)carbamoyl)bicyclo[2.2.1]heptan-2-yl)carbamoyl)phenoxy)-1-methylcyclohexane-1-carboxylic acid]",3.5 % free,34 µL/min/mg,26 µL/min/1e6 cells,10 µL/min/1e6 cells,560 µM
COc1cc(F)c(O[C@H]2CC[C@@](CO)(C(=O)O)CC2)cc1C(=O)N[C@@H]1[C@H]2CC[C@H](C2)[C@@H]1C(=O)NCC1(C)CCC1 [Example 364],11 % free,< 5.1 µL/min/mg,6.2 µL/min/1e6 cells,19 µL/min/1e6 cells,> 1000 µM
COc1cc(C(F)F)c(O[C@H]2CC[C@@](C)(C(=O)O)CC2)cc1C(=O)N[C@@H]1[C@H]2CC[C@H](C2)[C@@H]1C(=O)NCC1(C)CCC1 [Example 373],3.9 % free,23 µL/min/mg,5.1 µL/min/1e6 cells,16 µL/min/1e6 cells,1000 µM
COc1cc(C)c(O[C@H]2CC[C@@](C)(C(=O)O)CC2)cc1C(=O)N[C@@H]1[C@H]2CC[C@H](C2)[C@@H]1C(=O)NCC1(C)CCC1 [Example 375],4.4 % free,38 µL/min/mg,3.1 µL/min/1e6 cells,32 µL/min/1e6 cells,240 µM
CCc1cc(OC)c(C(=O)N[C@@H]2[C@H]3CC[C@H](C3)[C@@H]2C(=O)NCC2(C)CCC2)cc1O[C@H]1CC[C@@](C)(C(=O)O)CC1 [Example 376],2.5 % free,44 µL/min/mg,3.9 µL/min/1e6 cells,28 µL/min/1e6 cells,300 µM
COc1cc(C#N)c(O[C@H]2CC[C@@](C)(C(=O)O)CC2)cc1C(=O)N[C@@H]1[C@@H]2CC[C@@H](C2)[C@@H]1C(=O)NCC1(C)CCC1 [Example 388],3.4 % free,34 µL/min/mg,49 µL/min/1e6 cells,55 µL/min/1e6 cells,680 µM
COc1cc(C#N)c(O[C@H]2CC[C@@](C)(C(=O)O)CC2)cc1C(=O)N[C@@H]1[C@@H]2CC[C@@H](C2)[C@@H]1C(=O)NCC(C)(C)C [Example 389],6 % free,5.8 µL/min/mg,8 µL/min/1e6 cells,11 µL/min/1e6 cells,910 µM
"COc1cc(Cl)c(O[C@H]2CC[C@@](C)(C(=O)O)CC2)cc1C(=O)N[C@@H]1[C@H]2CC[C@H](C2)[C@@H]1C(=O)NCC1(C)CCC1 [Example 392, (1S,4s)-4-(2-Chloro-4-methoxy-5-(((1S,2R,3S,4R)-3-(((1-methylcyclobutyl)methyl)carbamoyl)bicyclo[2.2.1]heptan-2-yl)carbamoyl)phenoxy)-1-methylcyclohexane-1-carboxylic acid]",2.7 % free,36 µL/min/mg,4.7 µL/min/1e6 cells,15 µL/min/1e6 cells,470 µM
"CC1(CNC(=O)[C@H]2[C@@H]3CC[C@@H](C3)[C@H]2NC(=O)c2cc(O[C@H]3CC[C@@](C)(C(=O)O)CC3)c(F)cc2F)CCC1 [Example 393, (1S,4s)-4-(2,4-Difluoro-5-(((1S,2R,3S,4R)-3-(((1-methylcyclobutyl)methyl)carbamoyl)bicyclo[2.2.1]heptan-2-yl)carbamoyl)phenoxy)-1-methylcyclohexane-1-carboxylic acid]",1.4 % free,37 µL/min/mg,6.7 µL/min/1e6 cells,12 µL/min/1e6 cells,53 µM
COc1c(Cl)cc(O[C@H]2CC[C@@](C)(C(=O)O)CC2)cc1C(=O)N[C@@H]1[C@H]2CC[C@H](C2)[C@@H]1C(=O)NCC1(C)CCC1 [Example 403],1.5 % free,81 µL/min/mg,13 µL/min/1e6 cells,25 µL/min/1e6 cells,660 µM
COc1cc(Cl)c(O[C@H]2CC[C@@](C)(C(=O)O)CC2)cc1C(=O)N[C@@H]1[C@@H]2CC[C@@H](C2)[C@@H]1C(=O)NCC1(C)CCC1 [Example 410],0.48 % free,20 µL/min/mg,49 µL/min/1e6 cells,21 µL/min/1e6 cells,280 µM
"COc1cc(F)c(O[C@H]2CC[C@@](CC#N)(C(=O)O)CC2)cc1C(=O)N[C@@H]1[C@H]2CC[C@H](C2)[C@@H]1C(=O)NCC1(C)CCC1 [Example 424, (1S,4s)-1-(Cyanomethyl)-4-(2-fluoro-4-methoxy-5-(((1S,2R,3S,4R)-3-(((1-methylcyclobutyl)methyl)carbamoyl)bicyclo[2.2.1]heptan-2-yl)carbamoyl)phenoxy)cyclohexane-1-carboxylic acid]",6.7 % free,13 µL/min/mg,10 µL/min/1e6 cells,21 µL/min/1e6 cells,990 µM
"COc1cc(C#N)c(O[C@H]2CC[C@@](C)(C(=O)O)CC2)cc1C(=O)N[C@@H]1[C@H]2CC[C@H](C2)[C@@H]1C(=O)NCC1(C)CCC1 [Example 592, (1S,4s)-4-(2-cyano-4-methoxy-5-(((1S,2R,3S,4R)-3-(((1-methylcyclobutyl)methyl)carbamoyl)bicyclo[2.2.1]heptan-2-yl)carbamoyl)phenoxy)-1-methylcyclohexane-1-carboxylic acid]",6.3 % free,19 µL/min/mg,5.6 µL/min/1e6 cells,18 µL/min/1e6 cells,> 890 µM
"COc1cc(C#N)c(O[C@H]2CC[C@@](C)(C(=O)O)CC2)cc1C(=O)N[C@H]1C(C(=O)NCC(C)(C)C)[C@@H]2CC[C@H]1C2 (stereo partly drawn) [Example 621, (1S,4s)-4-(2-cyano-4-methoxy-5-(((1S,2R,3S,4R)-3-(neopentylcarbamoyl)bicyclo[2.2.1]heptan-2-yl)carbamoyl)phenoxy)-1-methylcyclohexane-1-carboxylic acid]",12 % free,< 3 µL/min/mg,< 1.2 µL/min/1e6 cells,15 µL/min/1e6 cells,910 µM
COc1cc(C#N)c(O[C@H]2CC[C@@](C)(C(=O)O)CC2)cc1C(=O)N[C@@H]1[C@H]2CC[C@H](C2)[C@@H]1C(=O)NC12CC(F)(C1)C2 [Example 622],17 % free,< 5.1 µL/min/mg,1.7 µL/min/1e6 cells,11 µL/min/1e6 cells,> 860 µM
